Assay results from publication PMC12036875, “Mitochondria-targeting natural product rhein conjugated with dichloroacetate as the dual inhibitor of glycolysis and oxidative phosphorylation to off energize cancer cells and induce ROS storm” (Theranostics, 2025).

Experiments:
4T1 cells = experiment: Intracellular and extracellular lactate determination; type: cell-based, Mouse; conditions: 6.25 μM, 24 h
Description: Next, the end product of glycolysis, lactate, was analyzed in 4T1 cells to further confirm the efficacy of the Rhein-DCA conjugate in blocking glycolytic metabolism. […] Lactate will be released from cells and condense in the TME due to the sustained aerobic glycolysis. To determine whether the decline in intracellular lactate level was caused by an increased extracellular secretion or a disconnect in glycolysis pathway, we further detected the lactate content in the culture medium (Figure 2E). The changes in extracellular lactate level were consistent with those observed intracellularly across the tested groups.
4T1 cells were seeded into 6-well plates at a density of 10 × 10^4 cells per well and cultured for 24 h. Cells were exposed to PBS, rhein, DCA, R + D and Rhein-DCA conjugate at a concentration of 6.25 μM for 24 h. (1) Medium: The medium from different groups was subjected to centrifugation at 9391 G for 10 min, 100 μL of supernatant was obtained, and 1 mL of extraction solution I was added. (2) Cells: After being washed twice with PBS, cells were harvested and suspended in extraction solution I (1 mL) for further lysis with sonication in ice bath (power 300 W, the duration of sonication is 3 s, the interval duration of 7 s, total sonication time of 3 min). […] Finally, the absorption value of each sample was detected with microplate reader at 570 nm.

[1] = Pharmacokinetic study after oral administration; type: in vivo, Sprague-Dawley (SD) rats; conditions: SD rats, I.G. 20 mg/kg, mean ± S.D., n = 3
Description: HPLC was conducted to evaluate the absorption and distribution of Rhein-DCA conjugate in […] after oral administration. Rhein-DCA was orally administered to Sprague-Dawley (SD) rats at 20 mg/kg, and the concentration of the drug in the blood samples was serially measured at predefined time points.
HPLC was used to evaluate the absorption and distribution of Rhein-DCA in […] after oral administration. Rhein-DCA was orally administered to Sprague-Dawley (SD) rats at 20 mg/kg. and the blood samples were serially collected at predefined time points (0.5, 1.5, 2, 3, 4, 5, 6, 8, 10 and 24 h). Centrifuge the blood at 3000 G for 10 min to separate serum, and the serum was mixed with methanol (1:3, v/v), vortexed for 3 min, and centrifuged at 13000 G for 10 min. The supernatant was filtered through a 0.22 µm membrane for HPLC assay. Pharmacokinetic parameters were derived using DAS 2.0 software with non-compartmental analysis (NCA).

[2] = Tissue distribution after oral administration; type: in vivo; conditions: 4T1-bearing Balb/c mice, oral 20 mg/kg
Description: 4T1-bearing Balb/c mice were orally administered with Rhein-DCA (20 mg/kg), major organs (heart, liver, spleen, lung, kidney) and tumor tissues were harvested at 2, 6, and 24 h after administration. […] The Rhein-DCA conjugate could be absorbed rapidly and broadly distributed in major organs tissue after administration.
4T1-bearing Balb/c mice were orally administered with Rhein-DCA (20 mg/kg), major organs (heart, liver, spleen, lung, kidney) and tumor tissues were harvested and weighed at 2, 6, and 24 h after administration. Each organ was homogenized with sonication in ice bath (power 400 W, the duration of sonication is 3 s, the interval duration of 3 s, total sonication time of 20 min). Centrifuge the homogenate at 13000 G for 10 min at 4°C to obtain the supernatant for HPLC.

4T1 tumor metastasis = experiment: Lung and liver metastasis (images, H&E); type: in vivo, Balb/c mice; conditions: 20 mg/kg oral, 24 days
Description: Correspondingly, the lung and liver tissues, which are the most common sites for primary tumor metastasis, were obtained and imaged, and then subjected to H&E staining for histopathological examination. […] The major organs (heart, liver, spleen, lung and kidney) were also excised for photographing and H&E staining. The blood biochemistry indexes, including ALT, AST, CREA and UREA were tested.

[3] = system: mitochondria of 4T1 cells; experiment: Cell uptake and organelle localization (CLSM); type: cell-based, Mouse; conditions: 24 h
Excerpt: In order to evaluate the positive effect of the conjugation of rhein and DCA on anti-cancer aspect, cellular uptake of Rhein-DCA conjugate in 4T1 cells was first examined by confocal laser scanning microscope (CLSM). Based on the fluorescence properties of Rhein-DCA conjugate, green fluorescence signal indicated its distribution within the cells. […] The green fluorescence of rhein was highly overlapped with the red fluorescence of mitochondria (Mito tracker red) and merged into yellow fluorescence in rhein and Rhein-DCA groups.
4T1 cells were seeded in confocal dishes at a density of 10 × 10^4 cells per dish and cultured in the incubator for 24 h. And the cells were further treated with Rhein-DCA conjugate at a concentration of 6.25 μM for 0, 2, 6, 12 or 24 h, respectively. Thereafter, the cells were washed twice with PBS and stained with Hoechst 33342 (10 μg/mL) for 15 min in the dark at room temperature, followed by another two washes with PBS. Finally, the fluorescence intensity of cells was monitored with confocal microscope with excitation wavelengths (Ex) of 488 nm, emission wavelengths (Em) of 525 ± 25 nm, and Ex of 405 nm, Em of 447 ± 30 nm, respectively. […]

In the case of `O=C(OCCOC(=O)C(Cl)Cl)c1cc(O)c2c(c1)C(=O)c1cccc(O)c1C2=O` [Rhein-DCA], the intracellular lactate content (4T1 cells) is reported as “noticeable descent”, the CL [1] is reported as 37.5 mL/min/kg and the Vd [1] is reported as 17.11 ± 8.08 L/kg. The AUC(0-inf) ([1]; Sprague-Dawley, rat, serum, po) was 8980 ng·h/mL, the AUC(0-t) ([1]; Sprague-Dawley, rat, serum, po) was 8220 ± 330 ng·h/mL and the Cmax ([1]; Sprague-Dawley, rat, serum, po) was 2680 ng/mL. For the same compound, the Tmax ([1]; Sprague-Dawley, rat, serum, po) was 1.5 h, the half-life ([1]; Sprague-Dawley, rat, serum, po) was 5.54 h and the intra-tumoral retention [2] was “remaining quantifiable up to 24 h”. For the same compound, the “systemic clearance from major organs by 24 h” value [2] was “extremely completed”, the Tmax ([2]; mouse, tumor, sampled at 2, 6, 24 h, read-out: time of peak concentration in tumors) was 6 h and the “metastatic lesions in lungs and livers” value (4T1 tumor metastasis) was “significantly decreased the number and size of metastatic lesions”. For the same compound, the “co-localization with lysosomes (Lyso tracker red) and endoplasmic reticulum (ER tracker red)” value [3] was “almost did not co-localize”.
